# Data from PubChem BioAssay (NCI).
#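 Each compound was tested at five concentrations against cells in 96-well plates for 48 hours. GI50 is the concentration that inhibits growth by half. TGI: concentration producing complete growth inhibition.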
# Assays:
# Assay in all cases: NCI-60 cell line screen, 48 h
# [1] = test system: 786-0 renal
# [2] = test system: A498 renal
# [3] = test system: A549 NSCLC
# [4] = test system: ACHN renal
# [5] = test system: BT-549 breast
# [6] = test system: CAKI-1 renal
# [7] = test system: CCRF-CEM leukemia
# [8] = test system: COLO 205 colon
# [9] = test system: DU-145 prostate
# [10] = test system: EKVX NSCLC
# [11] = test system: HCC-2998 colon
# [12] = test system: HCT-116 colon
# [13] = test system: HCT-15 colon
# [14] = test system: HL-60(TB) leukemia
# [15] = test system: HOP-62 NSCLC
# [16] = test system: HOP-92 NSCLC
# [17] = test system: HS 578T breast
# [18] = test system: HT29 colon
# [19] = test system: IGROV1 ovarian
# [20] = test system: K-562 leukemia
# [21] = test system: KM12 colon
# [22] = test system: LOX IMVI melanoma
# [23] = test system: MALME-3M melanoma
# [24] = test system: MCF7 breast
# [25] = test system: MDA-MB-231 breast
# [26] = test system: MDA-MB-435
# [27] = test system: MOLT-4 leukemia
# [28] = test system: NCI-H226 lung
# [29] = test system: NCI-H23 lung
smiles,measurement,setting,value
CSC1=Nc2c(c(C)c(C)n2COC(CO)CO)C2=NC(=O)C(C)N12 (stereo unspecified),GI50,[1],> 100 µM
same,TGI,[1],> 100 µM
same,GI50,[2],> 100 µM
same,TGI,[2],> 100 µM
same,GI50,[3],> 100 µM
same,TGI,[3],> 100 µM
same,GI50,[4],> 100 µM
same,TGI,[4],> 100 µM
same,GI50,[5],> 100 µM
same,TGI,[5],> 100 µM
same,GI50,[6],> 100 µM
same,TGI,[6],> 100 µM
same,GI50,[7],> 100 µM
same,TGI,[7],> 100 µM
same,GI50,[8],> 100 µM
same,TGI,[8],> 100 µM
same,GI50,[9],> 100 µM
same,TGI,[9],> 100 µM
same,GI50,[10],> 100 µM
same,TGI,[10],> 100 µM
same,GI50,[11],> 100 µM
same,TGI,[11],> 100 µM
same,GI50,[12],> 100 µM
same,TGI,[12],> 100 µM
same,GI50,[13],> 100 µM
same,TGI,[13],> 100 µM
same,TGI,[14],> 100 µM
same,GI50,[15],> 100 µM
same,TGI,[15],> 100 µM
same,GI50,[16],> 100 µM
same,TGI,[16],> 100 µM
same,GI50,[17],> 100 µM
same,TGI,[17],> 100 µM
same,GI50,[18],> 100 µM
same,TGI,[18],> 100 µM
same,GI50,[19],39.6 µM
same,TGI,[19],> 100 µM
same,GI50,[20],> 100 µM
same,TGI,[20],> 100 µM
same,GI50,[21],> 100 µM
same,TGI,[21],> 100 µM
same,GI50,[22],> 100 µM
same,TGI,[22],> 100 µM
same,GI50,[23],> 100 µM
same,TGI,[23],> 100 µM
same,GI50,[24],> 100 µM
same,TGI,[24],> 100 µM
same,GI50,[25],> 100 µM
same,TGI,[25],> 100 µM
same,GI50,[26],> 100 µM
same,TGI,[26],> 100 µM
same,GI50,[27],> 100 µM
same,TGI,[27],> 100 µM
same,GI50,[28],> 100 µM
same,TGI,[28],> 100 µM
same,GI50,[29],> 100 µM
